Assays:
[1] = Solubility of corallopyronin A in ethanol; format: physicochemical
[2] = Pharmacokinetic analysis in vivo in BALB/c mice; design: species or system BALB/c female mice; conditions: PO, Example 13, compared to IV set to 100%
Procedure: Pharmacokinetic analysis was performed in vivo in fed BALB/c female mice (n=4) (Study DZIF11). The solid formulation was suspended right before administration in PBS (phosphate buffered saline; pH=7.4) and was administered via gavage (36 mg/kg CorA, 10 mL/kg). Blood samples from the vena facialis were collected after 5, 10, 15, 30, 180, and 480 min. The samples were centrifuges for 10 min at 4° C. and 15000 g. The generated plasma was mixed in a ration of 1:3 with ice-cold acetonitrile (Bernd Kraft GmbH, Duisburg). The mixture was vortexed for 10 sec and centrifuged for 25 min at 4° C. and 11600 g. […] For the gradient method starting from 70% A/30% B to 20% A/80% B stepwise within 30 min, the mobile phases A (acetonitrile/water (Bernd Kraft GmbH, Duisburg) 5/95 with 5 mM ammonium acetate (Merck KGaA, Darmstadt) and 40 μL acetic acid (Sigma-Aldrich Chemie GmbH, Steinheim) per Liter) and B (acetonitrile/water 95/5 with 5 mM ammonium acetate and 40 μL acetic acid per Liter) enabled to quantitate corallopyronin A precisely at 300 nm at a flow rate of 0.3 mL/min and a column temperature of 30° C. The samples were quantitated via external reference standard. The content of the corallopyronin A reference material was analyzed by ^1H-NMR.
Plasma concentration-time profiles were generated and pharmacokinetic parameters calculated. […]

[3] = Stability analysis (storage, CorA content by HPLC-DAD); format: physicochemical
Procedure: The stability of the spray dried amorphous formulation of corallopyronin A embedded in polyvinylpyrrolidone was analyzed after storing samples in drying cabinets at 25° C./60% relative humidity (RH) and under accelerated conditions at 40° C./75% RH for 7, 14, 28 days and 3 months. The samples were stored in closed twist-off glass vials under nitrogen and in the presence of silica desiccant. The content was analyzed by High-Performance Liquid Chromatography with Diode-Array Detection (HPLC-DAD). The samples were, therefore, dissolved in acetonitrile (Bernd Kraft GmbH, Duisburg). The HPLC measurements were performed on a Waters Alliance e2695 separation module connected to a waters 2998 PDA detector. A waters XBridge® Shield RP18, 3.5 μm, 2.1×100 mm, 130 A column was used. For the gradient method starting from 70% A/30% B to 20% A/80% B stepwise within 30 min, the mobile phases A (acetonitrile/water (Bernd Kraft GmbH, Duisburg) 5/95 with 5 mM ammonium acetate (Merck KGaA, Darmstadt) and 40 μL acetic acid (Sigma-Aldrich Chemie GmbH, Steinheim) per Liter) and B (acetonitrile/water 95/5 with 5 mM ammonium acetate and 40 μL acetic acid per liter) enabled to quantitate corallopyronin A precisely at 300 nm at a flow rate of 0.3 mL/min and a column temperature of 30° C. The samples were quantitated via external reference standard. The content of the corallopyronin A reference material was analyzed by ^1H-NMR. The following table 2 summarizes the results of the stability analysis.

[4] = Biphasic dissolution test (BiPHa+); format: physicochemical; conditions: organic phase 1-decanol
Source text: To simulate the gastrointestinal properties to obtain in vivo predictive results, the pH-profile, bile salt concentration and gastrointestinal passage time were adjusted in the aqueous phase to mimic human gut conditions. […] An organic phase of 1-decanol above the aqueous phase imitated the fraction absorbed from the gut. As a test model, the profile of a person without prior food intake was chosen. Therefore, FaSSIF-V2 medium, which represents the bile salts concentration of a fasted human was used. […] To generate an in-situ biorelevant aqueous medium for the fasted state, biorelevant surfactants, namely sodium-taurocholate (3 mM) and lecithin (0.2 mM), were added.
Prior to the start of the experiments, both phases, 1-decanol and the acidic aqueous phase, were saturated with each other.
After 30 min FaSSIF-V2 concentrate (sodium-taurocholate and lecithin) was added simultaneously to the addition of citrate-phosphate buffer (tri-potassium phosphate and potassium citrate) resulting in a first pH-shift from pH 1 to pH 5.5, simulating the duodenum. […] The adjusted buffers were titrated by 0.1 M NaOH and 0.1 M HCl (pH 5.5-6.8). The whole dissolution took 4.5 hours.

methyl N-[(E)-5-[6-hydroxy-5-[(2E,4E,9Z,13E)-8-hydroxy-2,5,9-trimethylpentadeca-2,4,9,13-tetraenoyl]-4-oxopyran-2-yl]hex-1-enyl]carbamate [CorA]
amount that can be dissolved in ethanol [1]: 100 mg/mL | Absolute Bioavailability [2]: 11% | CorA Content ([3]; 3 months, 25° C., 60% RH, listed as Corallopyronin A): 39% | CorA Content ([3]; 3 months, 25° C., 60% RH, listed as corallopyronin A): below 40% | CorA Content ([3]; 3 months, 40° C., 75% RH, listed as Corallopyronin A): 6% | CorA Content ([3]; 3 months, 40° C., 75% RH, listed as corallopyronin A): below 10% | CorA Content ([3]; 7 days, 25° C., 60% RH, listed as Corallopyronin A): 85% | CorA Content ([3]; 7 days, 25° C., 60% RH, listed as corallopyronin A): below 90% | CorA Content ([3]; 7 days, 40° C., 75% RH, listed as Corallopyronin A): 47% | CorA Content ([3]; 7 days, 40° C., 75% RH, listed as corallopyronin A): below 50% | CorA Content ([3]; 14 days, 25° C., 60% RH): 76% | CorA Content ([3]; 14 days, 40° C., 75% RH): 31% | CorA Content ([3]; 28 days, 25° C., 60% RH): 63% | CorA Content ([3]; 28 days, 40° C., 75% RH): 17% | CorA Content ([3]; storage duration 0): 99% | predicted absorption ([4]; FaSSIF-V2 fasted human, pH 1 to 5.5 to 6.8, 4.5 hours, about 10 mg CorA): 7.7% | Maximum Partitioned Drug in the Organic Phase (%) ([4]; fasted human gut conditions, 4.5 h): 8%

— patent US20230181522A1, “SOLID AND LIQUISOLID FORMULATIONS OF CORALLOPYRONIN A” (RHEINISCHE FRIEDRICH-WILHELMS-UNIVERSITÄT BONN, priority 2020, published 2023)
